# Laboratory results from patent EP1096022B1, “Immuno-stimulating polysaccharide substance from Phellinus spp. strain and use thereof” (KOREA INSTITUTE OF SCIENCE AND TECHNOLOGY, priority 1999, dated 2001).
# Tests used:
# [1] = tested on: B16F10 cutaneous cancer cells; assay: Viability of mice implanted intraperitoneally with B16F10 cells, co-administration with chemotherapeutics, 60 days; assay type: in vivo, mouse; conditions: for Proportion (%): untreated = 100
# From the text: (§1) A homogeneous plantation test system of B 16F 10 cutaneous cancer cell was utilized for the measurement of the anticancer activity upon co-administration of the polysaccharide substance and adriamycin. The cutaneous cancer cells were implanted in the peritoneal cavity of mice. Adriamycin was peritoneally administered to the mice for 12 days after tumor implantation while the polysaccharide substance was peritoneally administered from a week before the implantation to 12 days after the implantation. For 60 days, the viability of the mice was recorded everyday. Adriamycin was used at such low amounts as not to damage the mice.
# The cutaneous cancer cells were implanted in the peritoneal cavity of mice. […] For 60 days, the viability of the mice was recorded everyday. Mitomycin C was used at such low amounts as not to damage the mice.
# The cutaneous cancer cells were implanted in the peritoneal cavity of mice. […] For 60 days, the viability of the mice was recorded everyday. Cisplastin was used at such low amounts as not to damage the mice.
# as §1, with “B16F10” for “B 16F 10”, “5-fluoro uracil, as in the above experiments.” for “adriamycin.”, “5-fluoro uracil” for “Adriamycin”
# [2] = tested on: B16F10 cutaneous cancer cells; assay: Lung metastasis after tail-vein implantation of B16F10 cells, spots counted on the 14th day; assay type: in vivo, C57BL/6 mice
# From the text: In order to test the polysaccharide substance for the prevention of cancer metastasis, B16F10 cutaneous cancer cells were implanted in the tail veins of C57BL/6 mice. On the 14th day after implantation, the lungs were isolated from the mice to investigate whether or to what extent cancer metastasis occurred. Adriamycin was peritoneally administered to the mice for 12 days after tumor implantation while the polysaccharide substance was peritoneally administered from a week before the implantation to 12 days after the implantation. […]
# [3] = tested on: NCl-H23 human lung cancer cells; assay: Direct cytotoxicity, sulforhodamin B method
# [4] = tested on: NCl-H23 lung cancer cells; assay: Human lung cancer cells implanted subcutaneously in nude mice, tumor size and weight; assay type: in vivo
# Protocol: The activity of the polysaccharide substance against human cancer was assayed using NCl-H23, a lung cancer cell line. Nude mice were subcutaneously implanted with NCl-H23 lung cancer cells. The polysaccharide substance and adriamycin were peritoneally administered to the nude mice for 12 days after cancer cell implantation. […] Because the nude mice were devoid of T-cells, their immunological competency was generally attributed to the activity of natural killer cells or macrophage cells. Therefore, the immunological enhancement obtained when administering the polysaccharide substance was meditated through these two type cells.
# [5] = tested on: B16F10 mouse cutaneous cancer cells; assay: Direct cytotoxicity, sulforhodamin B method
# [6] = 0.3 µg/mL, 2nd day after treatment
smiles,measurement,setting,value
"O=c1[nH]cc(F)c(=O)[nH]1 [5-FU, 5-fluoro uracil]",Avg. Viability,[1]; 5-fluorouracil 1 mg/kg alone,33.0 days
same,Nos. of viable mice on the 60th day,[1]; 5-fluorouracil 1 mg/kg alone,0/10
same,Avg. Viability,"[1]; 5-fluorouracil 1 mg/kg alone, listed as 5-Fluorouracil",34.2 days
same,Proportion (%),[1]; 5-fluorouracil 1 mg/kg alone,187.8%
same,Avg. Viability,[1]; 5-fluorouracil 3 mg/kg alone,40.5 days
same,Nos. of viable mice on the 60th day,[1]; 5-fluorouracil 3 mg/kg alone,2/10
same,Avg. Viability,"[1]; 5-fluorouracil 3 mg/kg alone, listed as 5-fluorouracil",40.2 days
same,Proportion (%),[1]; 5-fluorouracil 3 mg/kg alone,222%
COc1cccc2c1C(=O)c1c(O)c3c(c(O)c1C2=O)C[C@@](O)(C(=O)CO)C[C@@H]3O[C@H]1C[C@H](N)[C@H](O)[C@H](C)O1 [Adriamycin],Nos. of Spots,[2]; adriamycin 1mg/kg alone,197
same,Nos. of Spots,[2]; adriamycin 3mg/kg alone,172
same,cell quantity (untreated = 100 %),[3]; [6],100%
same,cell quantity (untreated = 100 %),"[3]; 1 µg/mL, 2nd day",71%
same,cell quantity (untreated = 100 %),"[3]; 3 µg/mL, 2nd day",39%
same,cell quantity (untreated = 100 %),"[3]; 10 µg/mL, 2nd day",7%
same,cell quantity (untreated = 100 %),"[3]; 30 µg/mL, 2nd day",-1%
same,cytotoxicity to cancer cells,[3]; overall statement,potent cytotoxicity
same,Avg. Viability,[1]; adriamycin 0.1 mg/kg alone,35.4 days
same,Nos. of viable mice on the 60th day,[1]; adriamycin 0.1 mg/kg alone,0/10
same,Proportion (%),[1]; adriamycin 0.1 mg/kg alone,195.6%
same,Avg. Viability,[1]; adriamycin 0.3 mg/kg alone,40.1 days
same,Nos. of viable mice on the 60th day,[1]; adriamycin 0.3 mg/kg alone,2/10
same,Proportion (%),[1]; adriamycin 0.3 mg/kg alone,240.9%
same,Cell size,"[4]; 14th day, 1mg/kg peritoneally for 12 days",12 mm^3
same,Cell size,"[4]; 17th day, 1mg/kg",27 mm^3
same,Cell size,"[4]; 18th day, 1mg/kg",34 mm^3
same,Cell size,"[4]; 19th day, 1mg/kg",33 mm^3
same,Final Cancer Weight,"[4]; 19th day, 1mg/kg",95
same,cell quantity (untreated = 100 %),[5]; [6],56%
same,cell quantity (untreated = 100 %),"[5]; 1 µg/mL, 2nd day",29%
same,cell quantity (untreated = 100 %),"[5]; 3 µg/mL, 2nd day",9%
same,cell quantity (untreated = 100 %),"[5]; 10 µg/mL, 2nd day",-10%
same,cell quantity (untreated = 100 %),"[5]; 30 µg/mL, 2nd day",-10%
same,cytotoxicity to cancer cells,[5]; overall statement,potent cytotoxicity
"N.N.[Cl][Pt][Cl] [C.P, Cisplatin]",Avg. Viability,[1]; cisplatin 0.5 mg/kg alone,33.0 days
same,Nos. of viable mice on the 60th day,[1]; cisplatin 0.5 mg/kg alone,0/10
same,Avg. Viability,"[1]; cisplatin 0.5 mg/kg alone, listed as Cisplatin",33 days
same,Proportion (%),[1]; cisplatin 0.5 mg/kg alone,182.3%
same,Avg. Viability,[1]; cisplatin 1.5 mg/kg alone,40.5 days
same,Nos. of viable mice on the 60th day,[1]; cisplatin 1.5 mg/kg alone,2/10
same,Proportion (%),[1]; cisplatin 1.5 mg/kg alone,223.8%
"CO[C@@]12[C@H](COC(N)=O)C3=C(C(=O)C(C)=C(N)C3=O)N1C[C@@H]1N[C@@H]12 [M.C, Mitomycin C]",Nos. of viable mice on the 60th day,[1]; mitomycin C 0.2 mg/kg alone,0/10
same,Avg. Viability,[1]; mitomycin C 0.6 mg/kg alone,38.0 days
same,Nos. of viable mice on the 60th day,[1]; mitomycin C 0.6 mg/kg alone,1/10
